According to patent US20230203041A1, “ANTAGONISTS OF THE ADENOSINE A2A RECEPTOR” (AdoRx Therapeutics Limited, priority 2020, published 2023):

What was measured:
[1] = biological target: T1, human Adenosine A2b receptor (Homo sapiens, UniProt P29275); experiment: Adenosine receptor TR-FRET binding assay (CA200645 displacement), A2b; settings: 30 nM CA200645, CHO cell membranes, 2 hours at room temperature
T1 construct: expressed in transfected cells; host or cells: CHO cell membranes
T1 sequence (P29275 1-332): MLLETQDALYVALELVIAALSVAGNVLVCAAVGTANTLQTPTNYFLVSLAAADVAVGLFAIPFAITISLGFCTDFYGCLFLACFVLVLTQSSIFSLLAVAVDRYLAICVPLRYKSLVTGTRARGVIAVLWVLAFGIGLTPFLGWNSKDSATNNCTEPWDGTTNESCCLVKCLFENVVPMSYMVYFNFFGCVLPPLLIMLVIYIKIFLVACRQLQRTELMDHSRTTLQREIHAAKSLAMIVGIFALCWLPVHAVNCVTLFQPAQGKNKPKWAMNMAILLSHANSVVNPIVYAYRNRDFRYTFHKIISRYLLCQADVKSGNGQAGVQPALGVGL

[2] = biological target: T2, human Adenosine A1 receptor (Homo sapiens, UniProt P30542); experiment: Adenosine receptor TR-FRET binding assay (CA200645 displacement), A1
T2 sequence (P30542 1-326): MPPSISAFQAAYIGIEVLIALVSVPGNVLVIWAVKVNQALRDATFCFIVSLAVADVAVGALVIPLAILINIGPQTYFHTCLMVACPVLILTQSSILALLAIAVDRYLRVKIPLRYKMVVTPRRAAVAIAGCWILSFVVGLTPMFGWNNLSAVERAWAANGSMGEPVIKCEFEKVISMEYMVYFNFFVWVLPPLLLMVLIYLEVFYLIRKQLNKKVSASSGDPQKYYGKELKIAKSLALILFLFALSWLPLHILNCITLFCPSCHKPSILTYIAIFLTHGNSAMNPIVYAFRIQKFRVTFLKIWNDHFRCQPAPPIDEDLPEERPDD

[3] = biological target: T3, human Adenosine A3 receptor (Homo sapiens, UniProt P0DMS8); experiment: Adenosine receptor TR-FRET binding assay (CA200645 displacement), A3
T3 sequence (P0DMS8 1-318): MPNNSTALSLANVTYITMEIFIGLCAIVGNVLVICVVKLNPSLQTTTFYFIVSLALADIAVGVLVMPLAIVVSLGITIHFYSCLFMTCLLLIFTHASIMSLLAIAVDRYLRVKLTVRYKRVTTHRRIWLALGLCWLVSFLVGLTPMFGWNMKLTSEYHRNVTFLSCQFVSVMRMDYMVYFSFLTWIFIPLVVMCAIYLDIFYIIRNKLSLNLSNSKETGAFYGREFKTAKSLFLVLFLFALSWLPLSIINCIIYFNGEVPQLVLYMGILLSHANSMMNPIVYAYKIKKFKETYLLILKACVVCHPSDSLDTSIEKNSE

[4] = biological target: T4, human Adenosine A2a receptor (Homo sapiens, UniProt P29274); experiment: Adenosine receptor TR-FRET binding assay (CA200645 displacement), A2a; settings: 100 nM CA200645, CHO cell membranes, 2 hours at room temperature
T4 construct: expressed in transfected cells; host or cells: CHO cell membranes
T4 sequence (P29274 whole entry): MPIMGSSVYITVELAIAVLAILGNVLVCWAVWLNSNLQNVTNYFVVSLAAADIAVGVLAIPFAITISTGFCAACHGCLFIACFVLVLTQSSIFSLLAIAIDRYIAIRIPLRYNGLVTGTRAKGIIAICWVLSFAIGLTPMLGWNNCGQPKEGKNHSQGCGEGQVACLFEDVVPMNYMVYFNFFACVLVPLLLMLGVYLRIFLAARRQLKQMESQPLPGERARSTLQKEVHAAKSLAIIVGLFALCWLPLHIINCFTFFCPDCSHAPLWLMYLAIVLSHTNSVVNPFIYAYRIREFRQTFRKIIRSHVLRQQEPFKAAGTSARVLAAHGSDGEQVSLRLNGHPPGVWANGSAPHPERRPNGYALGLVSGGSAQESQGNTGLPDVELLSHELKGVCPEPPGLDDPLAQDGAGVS
Description: All FRET binding experiments were conducted at room temperature in white 384-well plates, in assay binding buffer containing 1×LabMed (Cisbio, France), 100 μg/mL saponin, 1% DMSO and 0.02% pluronic acid. Binding of the fluorescently labelled Adenosine receptor antagonist XAC (CA200645, FRET acceptor) to terbium-labelled A1, A2a, A2b and A3 adenosine receptors (FRET donors) was detected by time-resolved FRET due to the close proximity of the donor and acceptor in a binding event. To investigate the ability of unlabelled test compounds to bind to Adenosine A1, A2a, A2b and A3 receptors, dose response curves were constructed that determined the ability of a range of concentrations to inhibit the binding of 30 nM CA200645 to the A2b receptor and 100 nM CA200645 to the A1, A2a, and A3 receptor.
Serial dilution (1:3 dilutions) of test compounds in neat DMSO and transfer of a 400 nL sample of test compound into the assay plate was carried out using the Mosquito (TTP Labtech, UK). The compound samples were incubated for 2 hours at room temperature with a fixed concentration of CA200645 defined for each receptor (see above) and CHO cell membranes containing the human Adenosine A1 (0.5 μg/well), A2a (0.3 μg/well), A2b (1 μg/well) or A3 (1 μg/well) receptor in 40 μL of assay buffer. Total and non-specific binding of CA200645 was determined in the absence and presence of 10 μM XAC, respectively. Following 2 hours incubation, the level of CA200645 binding was detected on a Pherastar FSX (BMG Labtech, Germany) using standard TR-FRET settings. The terbium donor was excited with three laser flashes at a wavelength of 337 nm, and donor and acceptor emission was detected at 620 nm and 665 nm wavelengths, respectively. FRET ratios were obtained by multiplying the acceptor/donor ratio value by 10,000. Specific binding was determined by subtracting the non-specific binding FRET ratio from the total binding FRET ratio. Compound IC50 curves were analysed using GraphPad Prism 7.0 (GraphPad, USA) and Ki affinity values were determined from the obtained IC50 values using the method of Cheng and Prusoff.

SMILES | Ki [1] [nM] | Ki [2] [nM] | Ki [3] [nM] | Ki [4] [nM]
Cc1cc(-c2c(-c3cccc(C#N)c3)nn3ccc(C(=O)NC4(C#N)CCNCC4)nc23)cc(Cl)n1 (single isomer, unassigned) [Example 7.16, 3-(2-Chloro-6-methyl-4-pyridyl)-2-(3-cyanophenyl)-N-(4-cyano-4-piperidyl)pyrazolo[1,5-a]pyrimidine-5-carboxamide] | 54 | 418 | > 1000 | 17.7
Cc1cc(-c2c(-c3cccc(C#N)c3)nn3ccc(C(=O)NC4(C(N)=O)CCNCC4)nc23)cc(Cl)n1 (single isomer, unassigned) [Example 7.17, N-(4-Carbamoyl-4-piperidyl)-3-(2-chloro-6-methyl-4-pyridyl)-2-(3-cyanophenyl)pyrazolo[1,5-a]pyrimidine-5-carboxamide] | 68 | 279 | > 1000 | 16.4
N#Cc1cccc(-c2nn3ccc(N)nc3c2-c2cn[nH]c2)c1 [Example 1.1] | 239 | 95 |  | 147
N#Cc1cccc(-c2nn3ccc(N)nc3c2-c2ccnnc2)c1 [Example 1.2] | 29 | 20 | 646 | 13.9
CCn1nccc1-c1c(-c2cccc(C#N)c2)nn2ccc(N)nc12 [Example 1.3] | 16 | 197 | > 1000 | 74.8
Cc1cc(-c2c(-c3cccc(C#N)c3)nn3ccc(N4CCOCC4)nc23)cc(Cl)n1 [Example 2.33] | 212 |  | 2000 | 22.5
Cc1cc(-c2c(-c3cccc(C#N)c3)nn3ccc(NC(C)(C)C)nc23)cc(Cl)n1 [Example 3.2] | 113 |  | > 1000 | 12
Cc1cc(-c2c(-c3cccc(C#N)c3)nn3ccc(C(=O)N[C@H]4CCCNC4)nc23)cc(Cl)n1 [Example 7.4, 3-(2-Chloro-6-methyl-4-pyridyl)-2-(3-cyanophenyl)-N-[(3S)-3-piperidyl]pyrazolo[1,5-a]pyrimidine-5-carboxamide] | 119 |  | > 1000 | 4.1
Cc1cc(-c2c(-c3cccc(C#N)c3)nn3ccc(C(=O)N[C@@H]4CCCNC4)nc23)cc(Cl)n1 [Example 7.7, 3-(2-Chloro-6-methyl-4-pyridyl)-2-(3-cyanophenyl)-N-[(3R)-3-piperidyl]pyrazolo[1,5-a]pyrimidine-5-carboxamide] | 12 |  | > 1000 | 14.9
Cc1cc(-c2c(-c3cccc(C#N)c3)nn3ccc(C(=O)O)nc23)cc(Cl)n1 [Example 9, 3-(2-Chloro-6-methyl-4-pyridyl)-2-(3-cyanophenyl)pyrazolo[1,5-a]pyrimidine-5-carboxylic acid] | 426 |  | > 1000 | 94
CCn1nccc1-c1c(-c2cccc(C#N)c2)nn2ccc(C(=O)NCC(C)(C)O)nc12 [Example 12, 2-(3-Cyanophenyl)-3-(2-ethylpyrazol-3-yl)-N-(2-hydroxy-2-methyl-propyl)pyrazolo[1,5-a]pyrimidine-5-carboxamide] | 240 |  | > 1000 | 145
CCn1ncc(C)c1-c1c(-c2cccc(C#N)c2)nn2ccc(C(=O)NCC(C)(C)O)nc12 [Example 12.3, 2-(3-Cyanophenyl)-3-(2-ethyl-4-methyl-pyrazol-3-yl)-N-(2-hydroxy-2-methyl-propyl)pyrazolo[1,5-a]pyrimidine-5-carboxamide] | 2310 |  | > 1000 | 
Cn1nccc1-c1c(-c2cccc(C#N)c2)nn2ccc(C(=O)NCC(C)(C)O)nc12 [Example 12.5, 2-(3-Cyanophenyl)-N-(2-hydroxy-2-methyl-propyl)-3-(2-methylpyrazol-3-yl)pyrazolo[1,5-a]pyrimidine-5-carboxamide] | 1510 | 2380 |  | 
CC(C)(O)CNC(=O)c1ccn2nc(-c3cccc(C#N)c3)c(-c3cncs3)c2n1 [Example 12.7, 2-(3-Cyanophenyl)-N-(2-hydroxy-2-methyl-propyl)-3-thiazol-5-yl-pyrazolo[1,5-a]pyrimidine-5-carboxamide] | 792 | 725 |  | 27.4
Cc1cc(-c2c(-c3cccc(C#N)c3)nn3ccc(NCCO)nc23)cc(Cl)n1 [Example 19, 3-[3-(2-Chloro-6-methyl-4-pyridyl)-5-(2-hydroxyethylamino)pyrazolo[1,5-a]pyrimidin-2-yl]benzonitrile] | 4 | 16 |  | 0.3
Cc1cc(-c2c(-c3cccc(C#N)c3)nn3ccc(N[C@@H](C)CO)nc23)cc(Cl)n1 [Example 23.3] | 29 |  | > 1000 | 10.1
Cc1cc(-c2c(-c3cccc(C#N)c3)nn3ccc(O[C@H]4CCNC4)nc23)cc(Cl)n1 [Example 24.2, 3-[3-(2-Chloro-6-methyl-4-pyridyl)-5-[(3S)-pyrrolidin-3-yl]oxy-pyrazolo[1,5-a]pyrimidin-2-yl]benzonitrile] | 25 |  | > 1000 | 12.5
Cc1cc(-c2c(-c3cccc(C#N)c3)nn3ccc(O[C@H]4CCCNC4)nc23)cc(Cl)n1 [Example 24.3, 3-[3-(2-Chloro-6-methyl-4-pyridyl)-5-[[(3S)-3-piperidyl]oxy]pyrazolo[1,5-a]pyrimidin-2-yl]benzonitrile] | 91 |  | > 1000 | 50.8
Cc1cc(-c2c(-c3cccc(C#N)c3)nn3ccc(N)nc23)cc(C#N)n1 [Example 26.3, 4-[5-Amino-2-(3-cyanophenyl)pyrazolo[1,5-a]pyrimidin-3-yl]-6-methyl-pyridine-2-carbonitrile] | 12 | 44 |  | 7.2
Fc1ccccc1-c1cc2nc(NCc3ccccc3)ccn2n1 [Example 36, N-Benzyl-2-(2-fluorophenyl)pyrazolo[1,5-a]pyrimidin-5-amine] | 1780 |  | > 1000 | 175
N#Cc1c(-c2ccco2)nn2ccc(N3CCN(c4ccccc4)CC3)nc12 [Example 55, 2-(2-Furyl)-5-(4-phenylpiperazin-1-yl)pyrazolo[1,5-a]pyrimidine-3-carbonitrile] | 2370 |  | > 1000 | 43.1
Cc1cccnc1CNc1ccn2nc(-c3cccc(F)c3)cc2n1 [Example 66.1, 2-(3-Fluorophenyl)-N-[(3-methyl-2-pyridyl)methyl]pyrazolo[1,5-a]pyrimidin-5-amine] | 1200 |  | > 1000 | 72
Fc1cccc(-c2cc3nc(NCCc4ccccc4)ccn3n2)c1 [Example 66.2, 2-(3-Fluorophenyl)-N-(2-phenylethyl)pyrazolo[1,5-a]pyrimidin-5-amine] | 2160 |  | 25 | 284
Fc1cccc(-c2cc3nc(NCc4nc5ccccc5[nH]4)ccn3n2)c1 [Example 66.3, N-(1H-Benzimidazol-2-ylmethyl)-2-(3-fluorophenyl)pyrazolo[1,5-a]pyrimidin-5-amine] | 2430 | 102 |  | 492
Fc1cccc(-c2nn3ccc(NCc4ccccc4)nc3c2Cl)c1 [Example 67, N-Benzyl-3-chloro-2-(3-fluorophenyl)pyrazolo[1,5-a]pyrimidin-5-amine] | 7470 |  | > 1000 | 120
Fc1cccc(-c2nn3ccc(NCc4ccccc4)nc3c2Br)c1 [Example 69, N-Benzyl-3-bromo-2-(3-fluorophenyl)pyrazolo[1,5-a]pyrimidin-5-amine] | 10000 |  | > 1000 | 141
Nc1ccn2nc(-c3cccc(F)c3)c(Br)c2n1 [Example 71, 3-Bromo-2-(3-fluorophenyl)pyrazolo[1,5-a]pyrimidin-5-amine] | 3860 |  | > 1000 | 197
O=C(O)c1c(-c2ccco2)nn2ccc(NCc3ccccc3)nc12 [Example 76, 5-(Benzylamino)-2-(2-furyl)pyrazolo[1,5-a]pyrimidine-3-carboxylic acid] | 2430 | 2540 |  | 116
Cc1cc(-c2c(-c3cccc(C#N)c3)nn3ccc(NS(N)(=O)=O)nc23)cc(Cl)n1 [Example 93, 3-(2-chloro-6-methyl-4-pyridyl)-2-(3-cyanophenyl)-5-(sulfamoylamino)pyrazolo[1,5-a]pyrimidine] | 1 | 307 |  | 11.1
